PubChem BioAssay (NCI)
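Test compounds were applied to cells in 96-well plates for 48 hours at 5 doses. At the TGI there is no net growth.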

Tests used:
Experiment in all cases: inhibition of tumour cell growth, NCI panel, 48 h
786-0 renal = test system: 786-0 renal
A498 renal = test system: A498 renal
A549 NSCLC = test system: A549 NSCLC
ACHN renal = test system: ACHN renal
BT-549 breast = test system: BT-549 breast
CAKI-1 renal = test system: CAKI-1 renal
CCRF-CEM leukemia = test system: CCRF-CEM leukemia
COLO 205 colon = test system: COLO 205 colon
DU-145 prostate = test system: DU-145 prostate
EKVX NSCLC = test system: EKVX NSCLC
HCC-2998 colon = test system: HCC-2998 colon
HCT-116 colon = test system: HCT-116 colon
HCT-15 colon = test system: HCT-15 colon
HOP-62 NSCLC = test system: HOP-62 NSCLC
HS 578T breast = test system: HS 578T breast
HT29 colon = test system: HT29 colon
IGROV1 ovarian = test system: IGROV1 ovarian
K-562 leukemia = test system: K-562 leukemia
KM12 colon = test system: KM12 colon
M14 melanoma = test system: M14 melanoma
MALME-3M melanoma = test system: MALME-3M melanoma
MCF7 breast = test system: MCF7 breast
MDA-MB-231 breast = test system: MDA-MB-231 breast
MDA-MB-435 = test system: MDA-MB-435
MDA-N = test system: MDA-N
MOLT-4 leukemia = test system: MOLT-4 leukemia
NCI-H226 lung = test system: NCI-H226 lung
NCI-H23 lung = test system: NCI-H23 lung
NCI-H460 lung = test system: NCI-H460 lung
NCI-H522 lung = test system: NCI-H522 lung
NCI/ADR-RES ovarian = test system: NCI/ADR-RES ovarian
OVCAR-3 ovarian = test system: OVCAR-3 ovarian
OVCAR-4 ovarian = test system: OVCAR-4 ovarian
OVCAR-5 ovarian = test system: OVCAR-5 ovarian
OVCAR-8 ovarian = test system: OVCAR-8 ovarian
PC-3 prostate = test system: PC-3 prostate
RPMI-8226 leukemia = test system: RPMI-8226 leukemia
RXF 393 renal = test system: RXF 393 renal
SF-268 CNS = test system: SF-268 CNS
SF-295 CNS = test system: SF-295 CNS
SK-MEL-2 melanoma = test system: SK-MEL-2 melanoma
SK-MEL-28 melanoma = test system: SK-MEL-28 melanoma
SK-MEL-5 melanoma = test system: SK-MEL-5 melanoma
SK-OV-3 ovarian = test system: SK-OV-3 ovarian
SN12C renal = test system: SN12C renal
SNB-19 CNS = test system: SNB-19 CNS
SNB-75 CNS = test system: SNB-75 CNS
SR leukemia = test system: SR leukemia
SW-620 colon = test system: SW-620 colon
T-47D breast = test system: T-47D breast
TK-10 renal = test system: TK-10 renal
U251 CNS = test system: U251 CNS
UACC-257 melanoma = test system: UACC-257 melanoma
UACC-62 melanoma = test system: UACC-62 melanoma
UO-31 renal = test system: UO-31 renal

Measured: TGI

COC1OC2COC1(OCc1ccccc1)C1OC(C)(C)OC21 (stereo not given)
> 100 µM: 786-0 renal | A498 renal | A549 NSCLC | ACHN renal | BT-549 breast | CAKI-1 renal | CCRF-CEM leukemia | COLO 205 colon | DU-145 prostate | EKVX NSCLC | HCC-2998 colon | HCT-116 colon | HCT-15 colon | HOP-62 NSCLC | HS 578T breast | HT29 colon | IGROV1 ovarian | K-562 leukemia | KM12 colon | M14 melanoma | MALME-3M melanoma | MCF7 breast | MDA-MB-231 breast | MDA-MB-435 | MDA-N | MOLT-4 leukemia | NCI-H226 lung | NCI-H23 lung | NCI-H460 lung | NCI-H522 lung | NCI/ADR-RES ovarian | OVCAR-3 ovarian | OVCAR-4 ovarian | OVCAR-5 ovarian | OVCAR-8 ovarian | PC-3 prostate | RPMI-8226 leukemia | RXF 393 renal | SF-268 CNS | SF-295 CNS | SK-MEL-2 melanoma | SK-MEL-28 melanoma | SK-MEL-5 melanoma | SK-OV-3 ovarian | SN12C renal | SNB-19 CNS | SNB-75 CNS | SR leukemia | SW-620 colon | T-47D breast | TK-10 renal | U251 CNS | UACC-257 melanoma | UACC-62 melanoma | UO-31 renal
